Data: patent publication US10912741B2, “Prevention of liver cancer with safranal-based formulations” (United Arab Emirates University, priority 2019, dated 2021)
Marks after values point to notes of the source that are not given here.

Legend:
Type in all cases: in vivo, albino Wistar rats
[1] = system: caspase-cleaved fragment of cytokeratin18 (M30 CytoDeath); test: M30 CytoDeath staining of liver sections (early apoptosis)
Experimental: (§1) The experimental hepatocarcinogenesis model was developed according to a protocol by Espandiaria et al. that was adapted for our purposes. To initiate and promote hepatocarcinogenesis, diethylnitrosamine (DEN) and 2-acetylaminofluorene (2-AAF) were used, respectively. For hepatocarcinogenesis initiation in this model, a single DEN dose (200 mg/kg b.wt.) dissolved in saline was injected intraperitoneally. After initiation, all rats underwent one period of 5-days fasting, as mitotic proliferative stimuli. To promote hepatocarcinogenesis, 2-acetylaminofluorene (2-AAF) was introduced in the form of six daily intragastric doses (30 mg/kg in 1% Tween 80); two weeks after DEN treatment.
Safranal at doses of 25 mg/kg by weight (b.wt.) and 50 mg/kg b.wt, was administrated orally to rats. These doses have been reported to suppress chemically-induced oxidative damage in rats. […]
TUNEL assay was performed for the purpose of assessing apoptosis. […] DNA fragmentation, a key indicator of apoptosis, is detected using this kit. […]
(§2) For immunohistochemical staining, mounted sections were immersed in sodium citrate buffer (0.1 M, pH 6) and placed in a water bath for 15 minutes to unmask antigen epitopes. […] Ten fields were randomly selected to quantify positive cells, in individual samples (400×). […]

p-TNF-R1 = test: Immunohistochemical staining of liver sections, p-TNF-R1 positive cells
Experimental: as §1
(§3) Safranal at doses of 25 mg/kg by weight (b.wt.) and 50 mg/kg b.wt, was administrated orally to rats. These doses have been reported to suppress chemically-induced oxidative damage in rats. A total of 40 adult male albino Wistar rats were randomly divided into […] (n=8) and were subjected to different treatments. […]
as §2

Ki-67 = test: Immunohistochemical staining of liver sections, Ki-67 (cell proliferation)
Experimental: as §1, §3, §2

COX-2 = test: Immunohistochemical staining of liver sections, COX-2 positive cells; settings: mean±SEM, 8 rats
Experimental: as §1
Safranal at doses of 25 mg/kg by weight (b.wt.) and 50 mg/kg b.wt, was administrated orally to rats. These doses have been reported to suppress chemically-induced oxidative damage in rats. A total of 40 adult male albino Wistar rats were randomly divided into […] (n=8) and were subjected to different treatments. Group 1 (control) was orally administered distilled water (5 ml/kg b.wt.) throughout the experimental duration and were injected with a single dose of saline. Group 2 (Safranal only) was subjected to a safranal dose (50 mg/kg b.wt.) through oral administration for the duration of the experimental period. Hepatocarcinogenesis was induced by DEN and promoted by 2-AAF, as reported previously, in group 3 (HCC). Rats in protective groups (groups 4-5) were treated with low/high doses of saffron-based safranal suspensions, at the beginning of promotion periods and continued for 12 weeks. The low dosage treatment with safranal consisted of 25 mg/kg b.wt., and the high dosage treatment consisted of 50 mg/kg b.wt. The experimental design is illustrated in FIG. 1.
as §2

## CC1=C(C=O)C(C)(C)CC=C1 [Safranal, 2,6,6-trimethylcyclohexa-1,3-diene-1-carbaldehyde]
[1]; low/high doses of safranal in animals exposed to DEN, compared to group 3
  number of M30 CytoDeath-positive cells: significant increase in the number of both TUNEL- and M30 CytoDeath-positive cells
[1]; safranal only (group 2), compared to control group
  number of M30 CytoDeath-positive cells: did not exhibit a notable change
p-TNF-R1; low/high doses of safranal, DEN-2-AAF-treated animals (groups 4-5), vs HCC group
  number of p-TNF-R1 positive cells: highly significant decrease
p-TNF-R1; safranal alone, compared to control group
  number of p-TNF-R1 positive cells: change of no significance
Ki-67; low/high doses of safranal in animals exposed to DEN (groups 4-5)
  number of Ki-67 positive cells: dramatically reduced the number of Ki-67 positive cells
Ki-67; safranal alone (group 2)
  number of Ki-67-expressing hepatocytes: did not induce a significant change
COX-2; HCC (DEN/2-AAF) rats + safranal high dose 50 mg/kg b.wt. oral, 12 weeks
  COX-2 positive cells: 6.91 ± 1.09^a&b positive cells/field
COX-2; HCC (DEN/2-AAF) rats + safranal low dose 25 mg/kg b.wt. oral, 12 weeks
  COX-2 positive cells: 2.15 ± 0.38^b positive cells/field
COX-2; safranal alone 50 mg/kg b.wt. oral, no DEN (group 2)
  COX-2 positive cells: 0.58 ± 0.04 positive cells/field
